Experimental data reported in patent publication US8952024B2, “Herbicidal pyrimidone derivatives” (E I du Pont de Nemours and Company, priority 2009, dated 2015).

Experiments:
Type in all cases: in vivo
[1] = system: rice (Oryza sativa); experiment: Test B flooded paddy test
Method in brief: (§1)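 Post-flood paddy application: compounds are introduced into water 3 cm deep over the soil, reaching plants at the 2-leaf stage. The water level is maintained, and after 13–15 days under greenhouse conditions, response is judged by eye relative to controls, where 100 means complete control.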

[2] = system: barnyardgrass (Echinochloa crus-galli); experiment: Test B flooded paddy test
Method in brief: as §1

[3] = system: umbrella sedge (Cyperus difformis); experiment: Test B flooded paddy test
Method in brief: as §1

[4] = system: ducksalad (Heteranthera limosa); experiment: Test B flooded paddy test
Method in brief: as §1

[5] = system: Surinam grass (Brachiaria decumbens); experiment: Test B pre-/postemergence plant response; details: Postemergence
Excerpt: (§2) Seeds of plant species selected from blackgrass (Alopecurus myosuroides), downy bromegrass (Bromus tectorum), green foxtail (Setaria viridis), Italian ryegrass (Lolium multiflorum), wheat (Triticum aestivum), wild oat (Avena fatua), deadnettle (henbit deadnettle, Lamium amplexicaule), galium (catchweed bedstraw, Galium aparine), bermudagrass (Cynodon dactylon), Surinam grass (Brachiaria decumbens), cocklebur (Xanthium strumarium), corn (Zea mays), large crabgrass (Digitaria sanguinalis), woolly cupgrass (Eriochloa villosa), giant foxtail (Setaria faberii), goosegrass (Eleusine indica), johnsongrass (Sorghum halepense), kochia (Kochia scoparia), lambsquarters (Chenopodium album), morningglory (Ipomoea coccinea), nightshade (eastern black nightshade, Solanum ptycanthum), yellow nutsedge (Cyperus esculentus), pigweed (Amaranthus retroflexus), ragweed (common ragweed, Ambrosia elatior), Russian thistle (Salsola kali), soybean (Glycine max), sunflower (common oilseed sunflower, Helianthus annuus) and velvetleaf (Abutilon theophrasti) were planted into a blend of loam soil and sand and treated preemergence with test compounds formulated in a non-phytotoxic solvent mixture which included a surfactant.
(§3) At the same time, plants selected from these crop and weed species and also winter barley (Hordeum vulgare), canarygrass (Phalaris minor), chickweed (Stellaria media) and windgrass (Apera spica-venti) were planted in pots containing Redi-Earth® planting medium (Scotts Company, 14111 Scottslawn Road, Marysville, Ohio 43041) comprising spaghnum peat moss, vermiculite, wetting agent and starter nutrients and treated with postemergence applications of some of the test chemicals formulated in the same manner. Plants ranged in height from 2 to 18 cm (1- to 4-leaf stage) for postemergence treatments.
(§4) Treated plants and controls were maintained in a greenhouse for 13 to 15 days, after which time all treated plants were visually evaluated and compared to controls. Plant response ratings, summarized in Table B, are based on a scale of 0 to 100 where 0 is no effect and 100 is complete control. A dash (-) response means no test result.

[6] = system: wheat (Triticum aestivum); experiment: Test B pre-/postemergence plant response; details: Postemergence
Excerpt: as §2, §3, §4

[7] = system: bermudagrass (Cynodon dactylon); experiment: Test B pre-/postemergence plant response; details: for Plant response rating, Bermudagrass: Postemergence
Excerpt: as §2, §3, §4

[8] = system: yellow nutsedge (Cyperus esculentus); experiment: Test B pre-/postemergence plant response; details: Postemergence
Excerpt: as §2, §3, §4

[9] = system: woolly cupgrass (Eriochloa villosa); experiment: Test B pre-/postemergence plant response; details: Postemergence
Excerpt: as §2, §3, §4

[10] = system: downy bromegrass (Bromus tectorum); experiment: Test B pre-/postemergence plant response; details: for Plant response rating, Bromegrass, Downy: Postemergence
Excerpt: as §2, §3, §4

[11] = system: lambsquarters (Chenopodium album); experiment: Test B pre-/postemergence plant response; details: Postemergence
Excerpt: as §2, §3, §4

[12] = system: pigweed (Amaranthus retroflexus); experiment: Test B pre-/postemergence plant response; details: Postemergence
Excerpt: as §2, §3, §4

[13] = 250 g ai/ha, flooded paddy test, visual rating on 0 to 100 scale (0 no effect, 100 complete control) after 13 to 15 days
[14] = Flood (flooded paddy test), 62 g ai/ha, scale 0 to 100, 0 is no effect, 100 is complete control, 13 to 15 days
[15] = 31 g ai/ha, 0 to 100 scale (0 no effect, 100 complete control)
[16] = 62 g ai/ha, postemergence, 0 is no effect, 100 is complete control, 13 to 15 days
[17] = 62 g ai/ha, scale 0 to 100 (0 no effect, 100 complete control)
[18] = 125 g ai/ha, scale 0 to 100 (0 no effect, 100 complete control)

O=C1CCCC(O)=C1C(=O)c1cnc(-c2ccccc2)n(Cc2ccccc2)c1=O [Compound 17, 5-[(2-hydroxy-6-oxo-1-cyclohexen-1-yl)carbonyl]-2-phenyl-3-(phenylmethyl)-4(3H)-pyrimidinone]
plant injury at 250 g/ha ([1]; Oryza sativa, 250 g ai/ha, flooded paddy test, visual rating on 0 to 100 scale (0 no effect, 100 complete control) after 13 to 15 days, read-out: Plant response rating, Flood, Rice): 15%
plant injury at 31 g/ha ([1]; Oryza sativa, Flood (flooded paddy test), 31 g ai/ha, scale of 0 to 100 where 0 is no effect and 100 is complete control, 13 to 15 days, read-out: Plant response rating, Rice): 0%
plant injury at 62 g/ha ([1]; Oryza sativa, Flood (flooded paddy test), 62 g ai/ha, scale 0 to 100, 0 is no effect, 100 is complete control, 13 to 15 days, read-out: Plant response rating, Rice): 0%
plant injury at 125 g/ha ([1]; Oryza sativa, Flood (flooded paddy test), 125 g ai/ha, scale 0 to 100, 0 is no effect, 100 is complete control, 13 to 15 days, read-out: Plant response rating, Rice): 0%
pest or weed control at 250 g/ha ([2]; Echinochloa crus-galli, 360 h, 250 g ai/ha, flooded paddy test, visual rating on 0 to 100 scale (0 no effect, 100 complete control) after 13 to 15 days, read-out: Plant response rating, Flood, Barnyardgrass): 25%
pest or weed control at 31 g/ha ([2]; Echinochloa crus-galli, 360 h, Flood (flooded paddy test), 31 g ai/ha, scale of 0 to 100 where 0 is no effect and 100 is complete control, 13 to 15 days, read-out: Plant response rating, Barnyardgrass): 0%
pest or weed control at 62 g/ha ([2]; Echinochloa crus-galli, 360 h, Flood (flooded paddy test), 62 g ai/ha, scale 0 to 100, 0 is no effect, 100 is complete control, 13 to 15 days, read-out: Plant response rating, Barnyardgrass): 20%
pest or weed control at 125 g/ha ([2]; Echinochloa crus-galli, 360 h, Flood (flooded paddy test), 125 g ai/ha, scale 0 to 100, 0 is no effect, 100 is complete control, 13 to 15 days, read-out: Plant response rating, Barnyardgrass): 25%
pest or weed control at 250 g/ha ([3]; Cyperus difformis, 360 h, 250 g ai/ha, flooded paddy test, visual rating on 0 to 100 scale (0 no effect, 100 complete control) after 13 to 15 days, read-out: Plant response rating, Flood, Sedge, Umbrella): 80%
pest or weed control at 31 g/ha ([3]; Cyperus difformis, 360 h, Flood (flooded paddy test), 31 g ai/ha, scale of 0 to 100 where 0 is no effect and 100 is complete control, 13 to 15 days, read-out: Plant response rating, Sedge, Umbrella): 0%
pest or weed control at 62 g/ha ([3]; Cyperus difformis, 360 h, Flood (flooded paddy test), 62 g ai/ha, scale 0 to 100, 0 is no effect, 100 is complete control, 13 to 15 days, read-out: Plant response rating, Sedge, Umbrella): 70%
pest or weed control at 125 g/ha ([3]; Cyperus difformis, 360 h, Flood (flooded paddy test), 125 g ai/ha, scale 0 to 100, 0 is no effect, 100 is complete control, 13 to 15 days, read-out: Plant response rating, Sedge, Umbrella): 70%
pest or weed control at 250 g/ha ([4]; Heteranthera limosa, 360 h, 250 g ai/ha, flooded paddy test, visual rating on 0 to 100 scale (0 no effect, 100 complete control) after 13 to 15 days, read-out: Plant response rating, Flood, Ducksalad): 45%
pest or weed control at 31 g/ha ([4]; Heteranthera limosa, 360 h, Flood (flooded paddy test), 31 g ai/ha, scale of 0 to 100 where 0 is no effect and 100 is complete control, 13 to 15 days, read-out: Plant response rating, Ducksalad): 0%
pest or weed control at 62 g/ha ([4]; Heteranthera limosa, 360 h, Flood (flooded paddy test), 62 g ai/ha, scale 0 to 100, 0 is no effect, 100 is complete control, 13 to 15 days, read-out: Plant response rating, Ducksalad): 30%
pest or weed control at 125 g/ha ([4]; Heteranthera limosa, 360 h, Flood (flooded paddy test), 125 g ai/ha, scale 0 to 100, 0 is no effect, 100 is complete control, 13 to 15 days, read-out: Plant response rating, Ducksalad): 30%

Cc1ccc(-n2c(-c3ccccc3)ncc(C(=O)C3=C(O)CCCC3=O)c2=O)c(C)c1 [Compound 28]
Plant response rating, Flood, Rice [1, 13]: 0
Plant response rating, Rice [1, 14]: 0
Plant response rating, Flood, Barnyardgrass [2, 13]: 20
Plant response rating, Barnyardgrass [2, 14]: 10
Plant response rating, Flood, Sedge, Umbrella [3, 13]: 80
Plant response rating, Sedge, Umbrella [3, 14]: 70
Plant response rating, Flood, Ducksalad [4, 13]: 85
Plant response rating, Ducksalad [4, 14]: 70

Cc1ccccc1-n1c(-c2cc(F)cc(F)c2)ncc(C(=O)C2=C(O)CCCC2=O)c1=O [Compound 159]
Plant response rating, Surinam Grass ([5]; 8 g ai/ha, 0 to 100 scale): 65
Plant response rating, Surinam Grass ([5]; 16 g ai/ha, 0 to 100 scale): 65
Plant response rating, Surinam Grass [5, 15]: 75
Plant response rating, Wheat ([6]; 8 g ai/ha, 0 to 100 scale): 10
Plant response rating, Wheat ([6]; 16 g ai/ha, 0 to 100 scale): 35
Plant response rating, Wheat [6, 15]: 40
Plant response rating, Bermudagrass ([7]; 8 g ai/ha, 0 to 100 scale): 70
Plant response rating, Bermudagrass ([7]; 16 g ai/ha, 0 to 100 scale): 80
Bermudagrass plant response rating (0 to 100 scale) [7, 16]: 100
Plant response rating, Bermudagrass [7, 15]: 95
Plant response rating, Nutsedge, Yellow ([8]; 8 g ai/ha, 0 to 100 scale): 10
Plant response rating, Nutsedge, Yellow ([8]; 16 g ai/ha, 0 to 100 scale): 20
Plant response rating, Nutsedge, Yellow [8, 15]: 40
Plant response rating, Cupgrass, Woolly ([9]; 8 g ai/ha, 0 to 100 scale): 60
Plant response rating, Cupgrass, Woolly ([9]; 16 g ai/ha, 0 to 100 scale): 65
Plant response rating, Cupgrass, Woolly [9, 15]: 70
Plant response rating, Bromegrass, Downy ([10]; 8 g ai/ha, 0 to 100 scale): 15
Plant response rating, Bromegrass, Downy ([10]; 16 g ai/ha, 0 to 100 scale): 15
Bromegrass, Downy plant response rating (0 to 100 scale) [10, 16]: 50
Plant response rating, Bromegrass, Downy [10, 15]: 50
Plant response rating, Lambsquarters ([11]; 8 g ai/ha, 0 to 100 scale): 90
Plant response rating, Lambsquarters ([11]; 16 g ai/ha, 0 to 100 scale): 95
Plant response rating, Lambsquarters [11, 15]: 100
Plant response rating, Pigweed ([12]; 8 g ai/ha, 0 to 100 scale): 55
Plant response rating, Pigweed ([12]; 16 g ai/ha, 0 to 100 scale): 75
Plant response rating, Pigweed [12, 15]: 95

CC1(C)CC(=O)C(C(=O)c2cnc(-c3ccccc3)n(-c3ccccc3)c2=O)=C(O)C1 [Compound 225]
Plant response rating, Surinam Grass ([5]; 16 g ai/ha, 0 to 100 scale): 35
Plant response rating, Surinam Grass [5, 15]: 75
Plant response rating, Surinam Grass [5, 17]: 75
Plant response rating, Wheat ([6]; 16 g ai/ha, 0 to 100 scale): 20
Plant response rating, Wheat [6, 15]: 30
Plant response rating, Wheat [6, 17]: 40
Plant response rating, Bermudagrass ([7]; 16 g ai/ha, 0 to 100 scale): 40
Plant response rating, Bermudagrass [7, 15]: 80
Plant response rating, Bermudagrass [7, 17]: 85
Plant response rating, Bermudagrass [7, 18]: 85
Plant response rating, Nutsedge, Yellow ([8]; 16 g ai/ha, 0 to 100 scale): 5
Plant response rating, Nutsedge, Yellow [8, 15]: 10
Plant response rating, Nutsedge, Yellow [8, 17]: 25
Plant response rating, Nutsedge, Yellow [8, 18]: 25
Plant response rating, Cupgrass, Woolly ([9]; 16 g ai/ha, 0 to 100 scale): 70
Plant response rating, Cupgrass, Woolly [9, 15]: 75
Plant response rating, Cupgrass, Woolly [9, 17]: 75
Plant response rating, Cupgrass, Woolly [9, 18]: 85
Plant response rating, Bromegrass, Downy ([10]; 16 g ai/ha, 0 to 100 scale): 30
Plant response rating, Bromegrass, Downy [10, 15]: 35
Plant response rating, Bromegrass, Downy [10, 17]: 70
Plant response rating, Bromegrass, Downy [10, 18]: 85
Plant response rating, Lambsquarters ([11]; 16 g ai/ha, 0 to 100 scale): 85
Plant response rating, Lambsquarters [11, 15]: 85
Plant response rating, Lambsquarters [11, 17]: 85
Plant response rating, Lambsquarters [11, 18]: 98
Plant response rating, Pigweed ([12]; 16 g ai/ha, 0 to 100 scale): 80
Plant response rating, Pigweed [12, 15]: 90
Plant response rating, Pigweed [12, 17]: 95
